From patent US11084830B2, “Five-membered non aromatic ring-pyrimidine HIV-1 reverse transcriptase inhibitor, preparation method therefor, and uses thereof” (priority 2018, dated 2021) come the findings set out here.

Like-named read-outs stand apart in the source and are kept apart here.

By EC50 is commonly meant the concentration giving half of the maximal effect. As usually defined, the CC50 is the concentration at which the toxic effect on the cells reaches its halfway point.

The test system of data set [1] is NNRTI-resistant double-mutant strain K103N+Y181C (RES056). Description: microbe, parasite or virus in culture. The settings on record: for EC50: Human immunodeficiency virus 1, MT4, read-out: EC50 RES056; for SI RES056: selectivity index, ratio of CC50/EC50, strain RES056. It is filed as cell-based, HIV-1. On the procedure:
(§1) Antiviral potency was evaluated in MT-4 cell cultures infected with WT HIV-1 strain (IllB) as well as cells infected with a panel of NNRTI-resistant double-mutant strain K103N+Y181C (RES056).
(§2) Selected compounds were screened for inhibitory activity against HIV-1 using MTT method as describe previously by Christophe. Pannecouque et al. Nat. Protoc. […] And in vitro anti-HIV activity of compounds were supported by Rega Institute for Medical Research. The MTT assay is based on the reduction of the yellow colored 3-(4,5-dimethylthiazol-2-yl)-2,5-diphenyltetrazolium bromide (MTT) by mitochondrial dehydrogenases of metabolically active cells to a blue formazan which can be measured spectrophotometrically. Tested optical density served as an indicator for live cells, and survival rate can be concluded by testing the optical density of 540 nm and 690 nm. MT-4 cells infected with HIV-1 can only survive for 5 to 7 days without any treatment, but when HIV-1 inhibitors were added, they can protect MT-4 cell from cytopathic. Serial solution of compounds was added to MT-4 cells after infected with HIV-1, MTT method was used to detect the survival rate after culture for 5 to 7 days.
(§3) (1) MT-4 cells infected with HIV-1 viral strains (IIIB, Y181C/K103N) were provided by Rega Institute for Medical Research, Katholieke Universiteit Leuven, Belgium.
(§4) (3) Preparation of compounds: Stock solutions (10×final concentration) of test compounds is diluted with double distilled H2O for 5 folds and 5 concentrations of one compound are prepared.
(§5) (5) Test method (MTT method): Serial five-fold dilutions of test compounds were added to cultured MT-4 cells infected with HIV-1, after 5 to 7 days, MTT was added and cultured for a few hours.
(§6) The MTT method was described briefly as follows: stock solutions (10×final concentration) of test compounds were added in 25 μL volumes to two series of triplicate wells in order to allow simultaneous evaluation of the effects on mock- and HIV-infected cells. Using a Biomek 3000 robot (Beckman Instruments, Fullerton, Calif.), serial five-fold dilutions of the test compounds (final 200 μL volume per well) were made directly in flat-bottomed 96-well microtiter trays, including untreated control HIV-1 and mock-infected cell samples for each sample. […] Mock-infected cells were used to evaluate the effect of test compounds on uninfected cells to assess cytotoxicity. Exponentially growing MT-4 cells were centrifuged for 5 min at 1000 rpm and the supernatant was discarded. […] At five days after infection, the viability of mock- and HIV-infected cells was determined spectrophotometrically by means of MTT assay.
(§7) The MTT assay is based on the reduction of yellow-colored MTT (Acros Organics, Geel, Belgium) by mitochondrial dehydrogenase of metabolically active cells to form a blue-purple formazan that can be measured spectrophotometrically. The absorbances were read in an eight-channel computer-controlled photometer, at the wavelengths of 540 and 690 nm. All data were calculated using the median optical density (OD) value of three wells.

Data set [2] is described as follows: Cytotoxicity in mock-infected MT-4 cells, MTT method. Type of data set: cell-based. The settings on record: human. On the procedure:
(§8) The MTT method was described briefly as follows: stock solutions (10×final concentration) of test compounds were added in 25 μL volumes to two series of triplicate wells in order to allow simultaneous evaluation of the effects on mock- and HIV-infected cells. Using a Biomek 3000 robot (Beckman Instruments, Fullerton, Calif.), serial five-fold dilutions of the test compounds (final 200 μL volume per well) were made directly in flat-bottomed 96-well microtiter trays, including untreated control HIV-1 and mock-infected cell samples for each sample. HIV-1 (IIIB) and mutant HIV-1 strains stock (50 μL at 100-300 CCID50) or culture medium was added to either the infected or mock-infected wells of the microtiter tray. Mock-infected cells were used to evaluate the effect of test compounds on uninfected cells to assess cytotoxicity. Exponentially growing MT-4 cells were centrifuged for 5 min at 1000 rpm and the supernatant was discarded. The MT-4 cells were resuspended at 6×10^5 cells/mL, and 50 μL aliquots were transferred to the microtiter tray wells. At five days after infection, the viability of mock- and HIV-infected cells was determined spectrophotometrically by means of MTT assay.
as §7

Data set [3] relates to WT HIV-1 strain (IIIB). Description: Anti-HIV-1 activity in MT-4 cells, MTT method, wild-type strain IIIB. It is filed as cell-based. The settings on record: for EC50: Human immunodeficiency virus 1, IIIB, MT4, read-out: EC50 IIIB; for SI IIIB: selectivity index, ratio of CC50/EC50, strain IIIB. On the procedure: as §1, §2, §3, §4, §5, §6, §7
(In general: Formazan colour is commonly taken as a measure of viable cells.)

Data set [4] has as its system mock-infected MT-4 cells. Briefly: Cytotoxicity in mock-infected MT-4 cells, MTT method. It is filed as cell-based. The settings on record: human, 5 days. On the procedure: as §8, §7
The mark [5] stands for this setting: concentration reducing viability of mock-infected MT-4 cell cultures by 50%, MTT method, read-out: CC50.

For `Cc1cc(C#N)cc(C)c1Oc1nc(NC2CCN(Cc3ccc(S(C)(=O)=O)cc3)CC2)nc2c1COC2` [Compound B3, 3,5-dimethyl-4-((2-((1-(4-(methylsulfonyl)benzyl)piperidin-4-yl)amino)-5,7-dihydrofuro[3,4-d]pyrimidin-4-yl)oxy)benzonitrile], in data set [1], the EC50 came to 41.6 ± 4.9 nM and the “SI RES056” value is given as 648. Moreover, half-maximal cytotoxicity in data set [2] (CC50) (CC50 at 5 days) was put at 27000 ± 3030 nM. In data set [3], the half-maximal effective concentration (EC50) is 1.8 nM and the “SI IIIB” value amounted to 14414.
In the case of `Cc1cc(C#N)cc(C)c1Oc1nc(NC2CCN(Cc3ccc([N+](=O)[O-])cc3)CC2)nc2c1SCC2` [Compound A5, 3,5-dimethyl-4-((2-((1-(4-nitrobenzyl)piperidin-4-yl)amino)-6,7-dihydrothieno[3,2-d]pyrimidin-4-yl)oxy)benzonitrile], in data set [1], the EC50 came to 495 ± 1.3 nM and the “SI RES056” value is on record as 12. The compound also returned a CC50 in data set [4] of 6180 ± 1740 nM. Also, the “SI IIIB” value in data set [3] came out at 770.
As for `Cc1cc(C#N)cc(C)c1Oc1nc(Nc2ccc(C#N)cc2)nc(N)c1Br` [ETR, Etravirine, reference compound], the CC50 at 5 days in data set [2] (CC50) was > 4590 nM.
In the case of `Cc1cc(C#N)cc(C)c1Oc1nc(NC2CCN(Cc3ccc(C(N)=O)cc3)CC2)nc2c1SCC2` [Compound A2, 4-((4-((4-(4-cyano-2,6-dimethylphenoxy)-6,7-dihydrothieno[3,2-d]pyrimidin-2-yl)amino)piperidin-1-yl)methyl)benzamide], in data set [1], the EC50 was 43.6 ± 5 nM and the “SI RES056” value is 3804. This compound also came in with a CC50 in data set [4] of 165000 ± 36900 nM. In addition, the “SI IIIB” value in data set [3] is 34162.
For the compound `Cc1ccnc2c1NC(=O)c1cccnc1N2C1CC1` [NVP, Nevirapine, reference compound], the figures for the EC50 in data set [1] and in data set [3] were > 9510 nM and 163 ± 41.2 nM, respectively. For the same compound, the CC50 at 5 days in data set [2] (mock-infected MT-4 cells, concentration reducing viability of mock-infected MT-4 cell cultures by 50%, MTT method, read-out: CC50) was > 9510 nM.
As for `Cc1cc(C#N)cc(C)c1Oc1nc(NC2CCN(Cc3ccncc3)CC2)nc2c1SCC2` [Compound A4, 3,5-dimethyl-4-((2-((1-(pyridin-4-ylmethyl)piperidin-4-yl)amino)-6,7-dihydrothieno[3,2-d]pyrimidin-4-yl)oxy)benzonitrile], in data set [1], the EC50 stood at 46 ± 1.9 nM and the “SI RES056” value is reported as ≥2305. In addition, the CC50 at 5 days in data set [2] (CC50) was ≥ 106000 nM. Also, the “SI IIIB” value in data set [3] is on record as ≥40104.
Take `Cc1cc(C#N)cc(C)c1Oc1nc(NC2CCN(Cc3ccc([N+](=O)[O-])cc3)CC2)nc2c1COC2` [Compound B5, 3,5-dimethyl-4-((2-((1-(4-nitrobenzyl)piperidin-4-yl)amino)-5,7-dihydrofuro[3,4-d]pyrimidin-4-yl)oxy)benzonitrile]: in data set [1], the EC50 was determined as 511 ± 165 nM and the “SI RES056” value was ≥22. Moreover, the CC50 at 5 days in data set [2] (CC50) is ≥ 11100 nM. For the same compound, in data set [3], the “SI IIIB” value is ≥1497.
`Cc1cc(C#N)cc(C)c1Oc1nc(NC2CCN(Cc3cccc(C(N)=O)c3)CC2)nc2c1SCC2` [Compound A6, 3-((4-((4-(4-cyano-2,6-dimethylphenoxy)-6,7-dihydrothieno[3,2-d]pyrimidin-2-yl)amino)piperidin-1-yl)methyl)benzamide]: in data set [1], the EC50 stood at 629 nM and the “SI RES056” value was ≥355. The CC50 at 5 days in data set [2] (CC50) is ≥ 223000 nM. The “SI IIIB” value in data set [3] is recorded as ≥8048.
As to `Cc1cc(C#N)cc(C)c1Oc1nc(NC2CCN(Cc3ccc(S(N)(=O)=O)cc3)CC2)nc2c1COC2` [Compound B1, 4-((4-((4-(4-cyano-2,6-dimethylphenoxy)-5,7-dihydrofuro[3,4-d]pyrimidin-2-yl)amino)piperidin-1-yl)methyl)benzenesulfonamide], in data set [1], the EC50 worked out at 38 ± 7.5 nM and the “SI RES056” value was determined as 604. In data set [2] (CC50), the CC50 at 5 days stood at 22900 ± 2890 nM. In addition, in data set [3], the concentration for a half-maximal effect (EC50) turned out to be 2 ± 0.2 nM and the “SI IIIB” value is on record as 11167.
On to `Cc1cc(C#N)cc(C)c1Oc1nc(NC2CCN(Cc3ccncc3)CC2)nc2c1COC2` [Compound B4, 3,5-dimethyl-4-((2-((1-(pyridin-4-ylmethyl)piperidin-4-yl)amino)-5,7-dihydrofuro[3,4-d]pyrimidin-4-yl)oxy)benzonitrile], for which, in data set [1], the EC50 was found to be 43.1 ± 1.2 nM and the “SI RES056” value is on record as 753. Moreover, the CC50 at 5 days in data set [2] (CC50) is 32500 ± 10000 nM. For the same compound, in data set [3], the EC50 amounted to 2.8 nM and the “SI IIIB” value was found to be 11414.
In the case of `Cc1cc(C#N)cc(C)c1Oc1nc(NC2CCN(Cc3ccc([N+](=O)[O-])cc3)CC2)nc2c1CCC2` [Compound C5, 3,5-dimethyl-4-((2-((1-(4-nitrobenzyl)piperidin-4-yl)amino)-6,7-dihydro-5H-cyclopenta[d]pyrimidin-4-yl)oxy)benzonitrile], in data set [1], the EC50 was 187 nM and the “SI RES056” value was 40. The compound further returned a CC50 at 5 days in data set [2] (CC50) of 7450 ± 930 nM. In addition, in data set [3], the EC50 worked out at 4.9 ± 0.8 nM and the “SI IIIB” value is listed as 1495.
Consider `Cc1cc(C#N)cc(C)c1Oc1nc(NC2CCN(Cc3ccc(S(C)(=O)=O)cc3)CC2)nc2c1CCC2` [Compound C3, 3,5-dimethyl-4-((2-((1-(4-(methylsulfonyl)benzyl)piperidin-4-yl)amino)-6,7-dihydro-5H-cyclopenta[d]pyrimidin-4-yl)oxy)benzonitrile], for which the EC50 in data set [1] worked out at 54.7 ± 6.22 nM; in data set [3], 1.8 ± 0.7 nM. In addition, in data set [1], the “SI RES056” value was >5020. Besides, the CC50 at 5 days in data set [2] (CC50) is > 274000 nM; in data set [2] (setting [5]), > 200000 nM.
As for `Cc1cc(C#N)cc(C)c1Oc1nc(NC2CCN(Cc3cccc(C(N)=O)c3)CC2)nc2c1CCC2` [Compound C6, 3-((4-((4-(4-cyano-2,6-dimethylphenoxy)-6,7-dihydro-5H-cyclopenta[d]pyrimidin-2-yl)amino)piperidin-1-yl)methyl)benzamide], in data set [1], the EC50 came out at 941 ± 368 nM and the “SI RES056” value was found to be 9. This compound registered a CC50 at 5 days in data set [2] (CC50) of 8730 ± 3530 nM. Also, in data set [3], the EC50 turned out to be 14.5 ± 3.6 nM and the “SI IIIB” value amounted to 599.
On to `Cc1cc(C#N)cc(C)c1Oc1nc(NC2CCN(Cc3ccncc3)CC2)nc2c1CCC2` [Compound C4, 3,5-dimethyl-4-((2-((1-(pyridin-4-ylmethyl)piperidin-4-yl)amino)-6,7-dihydro-5H-cyclopenta[d]pyrimidin-4-yl)oxy)benzonitrile], for which the EC50 in data set [1] was 26800 nM; in data set [3] it was 2 ± 0.5 nM. Moreover, the “SI RES056” value in data set [1] is recorded as 9. Besides, the cytotoxic concentration (CC50) at 5 days in data set [2] (CC50) was 205000 ± 1130 nM; in data set [2] (setting [5]), > 200000 nM.
Turning to `Cc1cc(C#N)cc(C)c1Oc1nc(NC2CCN(Cc3ccc(C(N)=O)cc3)CC2)nc2c1CCC2` [Compound C2, 4-((4-((4-(4-cyano-2,6-dimethylphenoxy)-6,7-dihydro-5H-cyclopenta[d]pyrimidin-2-yl)amino)piperidin-1-yl)methyl)benzamide], in data set [1], the EC50 was 173 ± 110 nM and the “SI RES056” value is >1448. The 50% cytotoxic concentration (CC50) at 5 days in data set [2] (CC50) was > 251000 nM. The “SI IIIB” value in data set [3] was >40984.
As for `Cc1cc(C#N)cc(C)c1Oc1nc(NC2CCN(Cc3cccc(C(N)=O)c3)CC2)nc2c1COC2` [Compound B6, 3-((4-((4-(4-cyano-2,6-dimethylphenoxy)-5,7-dihydrofuro[3,4-d]pyrimidin-2-yl)amino)piperidin-1-yl)methyl)benzamide], the EC50 in data set [1] is 1030 ± 51.1 nM; in data set [3] it was 7.8 ± 3.4 nM. The CC50 at 5 days in data set [2] (CC50) was > 250000 nM.
